Values of other authors as cited in paper PMC2231820 (The Journal of General Physiology, 2000).

Target: T1, rat olfactory (Rolf) CNG channel, α homomultimer (Rattus norvegicus, UniProt Q00195)
T1 sequence (Q00195 1-664): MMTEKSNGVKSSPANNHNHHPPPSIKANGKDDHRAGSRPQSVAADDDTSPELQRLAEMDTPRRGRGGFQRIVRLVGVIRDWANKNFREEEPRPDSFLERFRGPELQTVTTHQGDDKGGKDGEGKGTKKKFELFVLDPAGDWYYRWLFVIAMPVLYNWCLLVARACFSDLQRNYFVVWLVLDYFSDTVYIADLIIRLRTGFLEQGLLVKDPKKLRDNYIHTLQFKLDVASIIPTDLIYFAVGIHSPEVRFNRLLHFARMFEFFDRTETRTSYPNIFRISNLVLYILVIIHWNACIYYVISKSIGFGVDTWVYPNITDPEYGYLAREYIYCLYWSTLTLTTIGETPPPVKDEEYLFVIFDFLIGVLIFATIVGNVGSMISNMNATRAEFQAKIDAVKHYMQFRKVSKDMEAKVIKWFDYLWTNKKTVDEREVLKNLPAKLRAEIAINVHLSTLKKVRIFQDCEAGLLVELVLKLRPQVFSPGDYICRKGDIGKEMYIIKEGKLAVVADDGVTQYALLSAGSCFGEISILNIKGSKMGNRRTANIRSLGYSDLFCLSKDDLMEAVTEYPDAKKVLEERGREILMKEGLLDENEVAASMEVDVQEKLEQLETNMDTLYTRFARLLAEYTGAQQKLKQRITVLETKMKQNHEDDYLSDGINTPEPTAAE
Details: saturating 100 μM cGMP, ref Crary et al. 2000; cited from earlier work

Question: With diacylglycerol [DAG] as the substance, how does the “DAG maximal percent inhibition (INmax)” value read?
Answer: 31%
